# Test results from patent publication US11878972B2, “Treatment of neurological disorders” (TORQUR AG, priority 2016, dated 2024).
# “Also recorded” adds a separate entry of the source. Where two headings read alike, the source gives them in different places.
# Columns and labels:
# [1] = PK in Sprague Dawley (SD) rats; type: in vivo, rat
# Procedure: A single oral administration of cpd. 3, 10 mg/kg was given to female SD rats in a vehicle consisting of DMSO/HPBCD 20% (10/90). Animals were housed in controlled environment and enclosures provided sterile and adequate space with bedding material, food and water, environmental and social enrichment (group housing). Rats were randomized according to their individual body weight, treated and blood, brain and liver were collected and snap frozen at the following time points: 0.5, 2, 4 and 8 hours. Blood (approximately 500-700 μL, collected via cardiac puncture under anesthesia) was immediately transferred into tubes containing lithium-heparin as anticoagulant (Ref: T MLH, Venoject®, Terumo). Tubes were centrifuged at 1,300 g for 10 minutes at +4° C. The resulting plasma was collected and snap frozen in liquid nitrogen and stored at −80° C. until analysis.
# Compound concentrations were detected by HPLC-MS/MS. The calibration curves were drawn using standards of known concentrations.
# [2] = system: female NMRI mice, nonepileptic (sham-SE) and epileptic (pilo-SE); experiment: Maximal electroshock seizure threshold test (MEST); type: in vivo, mouse
# Procedure: A total of 166 adult female NMRI mice were used obtained from Charles River (Sulzfeld, Germany) at a weight range of 21-25 g (mice). Animals were kept under the following conditions: Housing: Animals were housed in groups of max. 8 mice under controlled conditions (temperature: 22±1° C.; humidity: 50% 60%/), under a 12-h light-dark cycle (lights on at 6:00 a.m.). Feeding: Standard laboratory chow (Altromin 1324 standard diet, Altromin Spezialfutter GmbH, Lage, Germany) was provided ad libitum. Drinking water: Tap water was provided ad libitum.
# The MEST determines a population seizure threshold in groups of ˜20 animals and not the threshold for an individual animal. In the present study, the MEST was determined by a staircase procedure as previously described. A stimulator (BMT Medizintechnik, Berlin, Germany) that delivered a constant current (adjustable from 1-200 mA regardless of the impedance of the animal) with sinusoidal pulses (50/sec) for 0.2 sec was used.
# Current administration was performed via bilateral transcorneal stimulation (using copper electrodes). Before transcorneal stimulation, a drop of tetracaine solution (2%) was administered to the eyes of the mouse for local anesthesia. Two minutes later, the mouse was restrained by hand to press the copper electrodes on both corneas while the stimulus was applied by stepping on a foot pedal switch connected with the stimulator. Electrodes were covered with soft leather and soaked with saline before each current application. […] The first stimulation was started with a current near to the control threshold.
# 3 (HCl): 40/100 mg in 10 ml (Suspension; 5% PEG 400 and 2% Tween 80, HPBCD (10%6)) • Cpd. 8 (HCl): 12.5/25 mg in 10 ml (5% PEG 400 and 2% Tween 80, HPBCD (10%))
# Statistical analysis were calculated using Student's t-test. All tests were used two-sided; a P<0.05 was considered significant.
# We performed no special tests for the determination of adverse effects. Mice were observed about 30 min after injection in their home cages for obvious sedation or reduction of wellbeing. Five minutes before electrical stimulation mice were again observed in their home cages and two minutes before stimulation during handling procedure for treatment with local anaesthesia. Every obvious variation from normal behavior was noted. Only phenobarbital induced noticeable sedation which lasted for more than 60 min. All other test drugs (including vehicle solutions) were tolerated without any obvious adverse effects.
# [3] = system: autophagic markers LC3II and p62; experiment: Induction of autophagy in brain of mice (western blot LC3, p62); type: in vivo, mouse; conditions: single oral administration 50 mg/kg
# Procedure: In order to investigate whether mTOR inhibition by Cpd. 3 and Cpd. 8 induces autophagy—the essential mechanism for huntingtin aggregate clearance-in the brain, BALB/c nude mice were treated with Cpd. 3 and Cpd. 8 as described in sample 5.
# [4] = system: 51Q-HTT-Exon1-eGFP transfected HEK cells; experiment: Immune cytochemistry, count of mutHTT aggregates; type: cell-based, human; conditions: Cpd. 8 130 nM, Cpd. 3 400 nM
# Procedure: HEK cells were transiently transfected with pcDNA3.1/V5-His vector from Clontech (Mountain View, USA) containing the expression sequence for Exon1 of HTT with a 19Q (no aggregation) or 51Q extension and enhanced green fluorescence protein (eGFP) tag using Attractene Transfection Reagent (Qiagen, Netherlands). 1×10^6 cells were seeded in a 6 well plate. On the next day 2 μg DNA were mixed with 95.5 μl transfection media and 4.5 μl transfection reagent. After an incubation time of 15 min the mixture was added to the cells. After 72 hours cells were harvested or fixed for analysis.
# HEK cells were seeded in poly-L-lysine (Sigma-Aldrich, USA) coated coverslips in 24 well plates at 10^4 cells per well and transiently transfected with 19Q- or 51Q-HTT-Exon1-eGFP. Cells were treated with Compounds as described under A for 8 or 24 hours. This incubation ended 72 hours after transfection. Cells were fixed with 4% (para-formaldehyde) PFA. Coverslips were fixed glass slides using mounting media that contained 4′,6-Diamidin-2-phenylindol (DAPI) (FIG. 7C). Nuclei and aggregates containing HTT-Exon1-eGFP were counted manually. 10 000 cells were counted per sample (FIG. 7D).
# [5] = system: STHdh^Q7/Q7 and STHdh^Q111/Q111 cells; experiment: PrestoBlue assay (cell viability/metabolic activity); type: cell-based, mouse; conditions: for metabolic activity (PrestoBlue) at 72 hours: 1230 nM, STHdh^Q111/Q111; for mitochondrial activity: at lower concentration
# Procedure: Cell viability/metabolic activity was detected using the PrestoBlue viability reagent (Invitrogen, USA) according to the manufacturer's instructions. […] 3 (130 nM, 1230 nM), Cpd. […] Non-toxic concentrations determined were transferred to primary neurons used later on in this study. […] At lower concentration of Cpd. 3 and Cpd. […] 8 in STHdh^Q111/Q111. […] Wild type cells are less sensitive to mTOR inhibition and 2.
# PK in B57BL/6J mice = conditions: for half-life: B57BL/6J, in vivo
# Procedure: 8, 50 mg/kg was administered to B57BL/6J mice by gavage. Animals were housed in temperature controlled rooms with free access to food and water. Test items were weighed in a glass vial and dissolved first in DMSO. Tween 80 was added subsequently and finally, the formulation was completed with HPβCD 20%. […] Blood was collected in tubes containing K3-EDTA and stored on ice until centrifugation at 3000×g (10 min. 4° C.). The plasma supernatant was separated and kept at −20° C. until being assayed. Thigh muscle and brain of mice were snap frozen. The brain and muscle samples were homogenized in PBS using the Precellys 24/Dual homogeniser.
# Samples were analyzed by LC-MS. Calibration standards were prepared by spiking 20 μl of drug free blank plasma with calibration solution. […] Samples were vigorously shaken and centrifuged for 10 minutes at 6000 g and 20° C. […] An aliquot was transferred to 200 μl sampler vials and subsequently subjected to LC-MS with an injection volume of 1.5 μl.
# [6] = female, Sprague-Dawley, plasma, rat, po, 10 mg/kg, single
# [7] = 40 mg/kg Cpd. 3 p.o., pretreatment 1 h
# [8] = 40 mg/kg Cpd. 3 p.o., pretreatment 3 h
# [9] = 100 mg/kg Cpd. 3 p.o., pretreatment 3 h
# [10] = 12.5 mg/kg Cpd. 8 p.o., pretreatment 3 h
# [11] = 25 mg/kg Cpd. 8 p.o., pretreatment 1 h
# [12] = 25 mg/kg Cpd. 8 p.o., pretreatment 3 h
# [13] = 25 mg/kg Cpd. 8 p.o., pretreatment 24 h
structure (smiles),measurement,setting,value
"Nc1cc(C(F)F)c(-c2nc(N3C4CCC3COC4)nc(N3C4CCC3COC4)n2)cn1 [Compound 3, 5-(4-(3-oxa-8-azabicyclo[3.2.1]octan-8-yl)-6-(3-oxa-8-azabicyclo[3.2.1]octan-8-yl)-1,3,5-triazin-2-yl)-4-(difluoromethyl)pyridin-2-amine]",oral bioavailability,"[1]; SD rats, single oral 10 mg/kg",good oral bioavailability
same,penetration into the brain,"[1]; SD rats, single oral 10 mg/kg",excellent penetration into the brain
same,Tmax,"[1]; female, Sprague-Dawley, brain, rat, po, 10 mg/kg, single, read-out: Brain Tmax",0.5 h
same,AUC,[1]; [6],400 ng·h/mL
same,Cmax,[1]; [6],1400 ng/mL
same,Tmax,"[1]; female, Sprague-Dawley, plasma, rat, po, 10 mg/kg, single, read-out: Plasma Tmax",0.5 h
same,Brain AUC,"[1]; rat, po, 10 mg/kg, single",2500 ng·h/mL
same,Brain Cmax,"[1]; rat, po, 10 mg/kg, single",1.3 µg/g
same,CC50 Pilo-SE (epileptic),[2]; [7],17.99 ± 1.39 mA
same,CC50 Sham-SE (nonepileptic),[2]; [7],15.14 ± 1.06 mA
same,Threshold difference between nonepileptic and epileptic,[2]; [7],19%
same,CC50 Pilo-SE (epileptic),[2]; [8],18.20 ± 1.35 mA
same,CC50 Sham-SE (nonepileptic),[2]; [8],17.49 ± 1.20 mA
same,Threshold difference between nonepileptic and epileptic,[2]; [8],4%
same,"Threshold difference between vehicle and drug threshold, nonepileptic",[2]; [8],6%
same,CC50 Pilo-SE (epileptic),[2]; [9],20.85 ± 1.38 mA
same,CC50 Sham-SE (nonepileptic),[2]; [9],16.72 ± 1.72 mA
same,Threshold difference between nonepileptic and epileptic,[2]; [9],25%
same,"Threshold difference between vehicle and drug threshold, epileptic",[2]; [9],9%
same,"Threshold difference between vehicle and drug threshold, nonepileptic",[2]; [9],2%
same,anticonvulsant effect (overall),[2]; parameters tested in this study,slight but inconsistent anticonvulsant effect
same,autophagic marker LC3II in brain,[3],time-dependent increase
same,autophagic marker p62 in brain,[3],decrease
same,reduction of number of mutHTT aggregates,[4]; 8 hours of treatment,66%
same,reduction of number of mutHTT aggregates,[4]; 24 hours of treatment,73%
same,metabolic activity (PrestoBlue) at 72 hours,[5],slight inhibition; also recorded: decreased metabolic activity
same,mitochondrial activity,[5],slight increase in mitochondrial activity
same,Brain AUC,"PK in B57BL/6J mice; mouse, po, 50 mg/kg, single",30600 ng·h/mL
same,Brain Cmax,"PK in B57BL/6J mice; mouse, po, 50 mg/kg, single",7.7 µg/g
"C[C@H]1COCCN1c1nc(-c2cnc(N)cc2C(F)F)nc(N2CCOCC2)n1 [Compound 8, (S)-4-(difluoromethyl)-5-(4-(3-methylmorpholino)-6-morpholino-1,3,5-triazin-2-yl)pyridin-2-amine]",Threshold difference between nonepileptic and epileptic,[2]; [10],−1%
same,"Threshold difference between vehicle and drug threshold, epileptic",[2]; [10],−1%
same,"Threshold difference between vehicle and drug threshold, nonepileptic",[2]; [10],8%
same,Threshold difference between nonepileptic and epileptic,[2]; [11],−14%
same,"Threshold difference between vehicle and drug threshold, epileptic",[2]; [11],−9%
same,Threshold difference between nonepileptic and epileptic,[2]; [12],−22%
same,"Threshold difference between vehicle and drug threshold, epileptic",[2]; [12],6%
same,"Threshold difference between vehicle and drug threshold, nonepileptic",[2]; [12],30%
same,Threshold difference between nonepileptic and epileptic,[2]; [13],5%
same,"Threshold difference between vehicle and drug threshold, epileptic",[2]; [13],−2%
same,decrease of the CC50,"[2]; Cpd. 8, epileptic mice, pretreatment time reduced to 1 h",9%
same,reduction of number of mutHTT aggregates,[4]; 8 hours of treatment,55%
same,reduction of number of mutHTT aggregates,[4]; 24 hours of treatment,77%
same,metabolic activity (PrestoBlue) at 72 hours,[5],not significantly
same,mitochondrial activity,[5],slight increase in mitochondrial activity
same,half-life,"PK in B57BL/6J mice; mouse, oral, 50 mg/kg, half-life, as stated in the discussion of the Tsc1 GFAP study",5 h
same,half-life,"PK in B57BL/6J mice; mouse, po, 50 mg/kg, half-life in mice (estimated), mice, single oral 50 mg/kg",4.7 to 4.8 h
same,oral bioavailability,"PK in B57BL/6J mice; mice, single oral 50 mg/kg",good oral bioavailability
